Marks after values point to notes of the source that are not given here.

A short description of the first series: Measurement of logP values by HPLC on reversed phase columns (EEC directive 79/831 Annex V.A8). The format is physicochemical. The note with it: pH 2.3.
Take `CCCN(CCC#N)C(=O)c1cc(-c2ncnc(Nc3cccc(Cl)c3)n2)ccn1` [B182]: the “logP [b]” value was 3.13[b].

The series is the same for the next values; noted with them: pH 2.7.
Consider `CCN(OC)C(=O)c1cc(-c2ncnc(Nc3cccc(C(F)F)c3)n2)ccn1` [B413], for which the lipophilicity (logP) was 2.64.

As for `CC(=O)c1cc(-c2ncnc(Nc3cccc(Cl)c3)n2)ccn1` [Example B26, 1-(4-{4-[(3-chlorophenyl)amino]-1,3,5-triazin-2-yl}pyridin-2-yl)ethanone], the chromatographic logP worked out at 3.32.

In turn, `CON(C)C(=O)c1cc(-c2ncnc(Nc3cccc(Cl)c3)n2)ccn1` [Example B186] returned a lipophilicity (logP) of 2.59.

On to `CN(C)C(=O)c1cc(-c2ncnc(Nc3ccccc3)n2)ccn1` [Example B314], for which the logP turned out to be 1.95.

Take `CC(C)N(C)C(=O)c1cc(-c2ncnc(Nc3cccc(C#N)c3)n2)ccn1` [Example B296]: the logP is 2.37.

`CCCC(C)NC(=O)c1cc(-c2ncnc(Nc3ccc(C)c(Cl)c3)n2)ccn1` (centres unmarked) [B235] returned a logP of 5.

`CCN(CC)C(=O)c1cc(-c2ncnc(Nc3cccc(OC(F)F)c3)n2)ccn1` [Example B298] had a log partition coefficient (logP) of 2.88.

Compound `O=C(NCCCO)c1cc(-c2ncnc(Nc3cccc(Cl)c3)n2)ccn1` [Example B183] came in with a log partition coefficient (logP) of 2.4.

As to `CN(C)C(=O)c1cc(-c2ncnc(Nc3cccc(OC(F)(F)C(F)F)c3)n2)ccn1` [Example B364], the logP came out at 2.64.

In turn, `CC(C)N(C)C(=O)c1cc(-c2ncnc(Nc3cccc(OC(F)(F)F)c3)n2)ccn1` [B269] gave a logP of 3.29.

`CCC(=NOCc1ccc(OC)cc1)c1cc(-c2ncnc(Nc3cccc(Cl)c3)n2)ccn1` (mixture of isomers) [B68] gave a log partition coefficient (logP) of 5.46.

In turn, `CC(C)CN(C)C(=O)c1cc(-c2ncnc(Nc3cccc(OC(F)(F)F)c3)n2)ccn1` [Example B267] yielded a lipophilicity (logP) of 3.73.

`CCN(CC)C(=O)c1cc(-c2ncnc(Nc3ccc(F)c(Cl)c3)n2)ccn1` [Example B202] had a logP of 3.13.

In the case of `CC(=O)Nc1cccc(Nc2ncnc(-c3ccnc(C(=O)N(C)C)c3)n2)c1` [Example B307], the logP was 1.4.

On to `CCN(C)C(=O)c1cc(-c2ncnc(Nc3ccc(F)cc3)n2)ccn1` [Example B20], for which the log partition coefficient (logP) is given as 2.28.

Consider `COCC(C)NC(=O)c1cc(-c2ncnc(Nc3ccc(C)c(Cl)c3)n2)ccn1` (centres unmarked) [Example B225], for which the lipophilicity (logP) was found to be 3.8.

On to `CN(C)C(=O)c1cc(-c2ncnc(Nc3ccc(F)c(C(F)F)c3)n2)ccn1` [Example B393], for which the logP came out at 2.25.

With `O=C(NC1COC1)c1cc(-c2ncnc(Nc3cccc(Cl)c3)n2)ccn1` [B112], the lipophilicity (logP) is 2.6.

Compound `CCN(C)C(=S)c1cc(-c2ncnc(Nc3cccc(OC)c3)n2)ccn1` [Example B281] registered a log partition coefficient (logP) of 2.78. The logP values of the last two compounds are within 0.2 log units of each other.

Take `CCN(C)C(=O)c1cc(-c2ncnc(Nc3cccc(COC)c3)n2)ccn1` [Example B245]: the logP amounted to 2.17.

`CN(CCC#N)C(=S)c1cc(-c2ncnc(Nc3ccc(F)c(C(F)F)c3)n2)ccn1` [Example B340]: the logP amounted to 2.82.

As to `CCN(C)C(=S)c1cc(-c2ncnc(Nc3cccc(OC(F)F)c3)n2)ccn1` [B424], the logP amounted to 3.06.

As to `CC(=NOCCN(C)C)c1cc(-c2ncnc(Nc3cccc(Cl)c3)n2)ccn1` (mixture of isomers) [B32], the logP was 1.99.

`COCc1cccc(Nc2ncnc(-c3ccnc(C(=O)N(C)CC(C)C)c3)n2)c1` [Example B244] displayed a logP of 2.66.

Turning to `CCN(CC)C(=O)c1cc(-c2ncnc(Nc3ccccc3)n2)ccn1` [Example B311], the logP is recorded as 2.55.

In turn, `CCN(C)C(=S)c1cc(-c2ncnc(Nc3cccc(C(F)F)c3)n2)ccn1` [Example B341] registered a logP of 2.94.

`CC(C)CN(C)C(=O)c1cc(-c2ncnc(Nc3ccccc3)n2)ccn1` [Example B315] displayed a logP of 2.84.

For `CCN(C)C(=O)c1cc(-c2ncnc(Nc3cccc(OC)c3)n2)ccn1` [Example B278], the logP stood at 2.26.

In the case of `CC1CCCN(C(=O)c2cc(-c3ncnc(Nc4cccc(Cl)c4)n3)ccn2)C1` (centres unmarked) [Example B135], the logP was 3.48.

Compound `CCN(C)C(=O)c1cc(-c2ncnc(Nc3cccc(F)c3)n2)ccn1` [Example B7] had a lipophilicity (logP) of 2.4.

The compound `CN(CC1CC1)C(=O)c1cc(-c2ncnc(Nc3cccc(OC(F)F)c3)n2)ccn1` [B410] had a logP of 2.98.

The compound `CCN(CC)C(=O)c1cc(-c2ncnc(Nc3cccc(OC(F)(F)F)c3)n2)ccn1` [Example B263] gave a logP of 3.39.

Regarding `CCN(C)C(=O)c1cc(-c2ncnc(Nc3ccsc3)n2)ccn1` [Example C17], the logP is on record as 2.13.

For `CCCN(C)C(=O)c1cc(-c2ncnc(Nc3cccc(COC)c3)n2)ccn1` [Example B241], the logP is recorded as 2.48.

Take `CCN(CC)C(=O)c1cc(-c2ncnc(Nc3cccc(C(F)F)c3)n2)ccn1` [Example B285]: the log partition coefficient (logP) came out at 2.73.

With `CC(C)N(C)C(=O)c1cc(-c2ncnc(Nc3ccc(F)cc3)n2)ccn1` [Example B21], the logP is 2.55. The logP values of the last two compounds are within 0.2 log units of each other.

Turning to `CCOC(=O)CNN=C(C)c1cc(-c2ncnc(Nc3cccc(Cl)c3)n2)ccn1` [Example B77], the log partition coefficient (logP) is on record as 3.02.

Compound `CCC(C)NC(=O)c1cc(-c2ncnc(Nc3cccc(Cl)c3)n2)ccn1` (centres unmarked) [Example B94] yielded a log partition coefficient (logP) of 4.04.

`CN(CCC#N)C(=O)c1cc(-c2ncnc(Nc3cccc(C(F)(F)F)c3)n2)ccn1` [Example B363]: the logP was 2.68.

In turn, `COCCN(C)C(=O)c1cc(-c2ncnc(Nc3cccc(OC)c3)n2)ccn1` [Example B280] came in with a lipophilicity (logP) of 2.14.

With `CC(=NOC1CCCC1)c1cc(-c2ncnc(Nc3cccc(Cl)c3)n2)ccn1` (mixture of isomers) [Example B38], the lipophilicity (logP) turned out to be 5.79.

As to `CCN(C)C(=S)c1cc(-c2ncnc(Nc3cccc(C(C)C)c3)n2)ccn1` [Example B259], the lipophilicity (logP) is 3.7.

Compound `COCC(C1CC1)N(C)C(=O)c1cc(-c2ncnc(Nc3ccc(F)c(Cl)c3)n2)ccn1` (centres unmarked) [B210] displayed a log partition coefficient (logP) of 3.33.

With `CCCN(C)C(=O)c1cc(-c2ncnc(Nc3cccc(F)c3)n2)ccn1` [Example B3], the logP worked out at 2.72.

For `CCN(CC)C(=O)c1cc(-c2ncnc(Nc3cccc(COC)c3)n2)ccn1` [Example B240], the logP came out at 2.48.

For the compound `CC1CCCCN1C(=O)c1cc(-c2ncnc(Nc3cccc(Cl)c3)n2)ccn1` (centres unmarked) [Example B142], the log partition coefficient (logP) was found to be 3.39.

`CC(C)=CC(=O)O/N=C(/N)c1cc(-c2ncnc(Nc3cccc(Cl)c3)n2)ccn1` [Example B111]: the log partition coefficient (logP) came out at 3.92.

As to `CC(C)N(C)C(=O)c1cc(-c2ncnc(Nc3ccc(F)c(F)c3)n2)ccn1` [Example B383], the log partition coefficient (logP) came to 2.78.

Regarding `COC[C@H](C)NC(=O)c1cc(-c2ncnc(Nc3cccc(Cl)c3)n2)ccn1` [B52], the log partition coefficient (logP) came out at 3.39.

Take `CSc1cccc(Nc2ncnc(-c3ccnc(C(=O)NC(C)C)c3)n2)c1` [B217]: the lipophilicity (logP) was found to be 3.53.

As for `CCN(C)C(=O)c1cc(-c2ncnc(Nc3cccc(S(F)(F)(F)(F)F)c3)n2)ccn1` [Example B252], the log partition coefficient (logP) is recorded as 3.06.

As to `CN(CCC#N)C(=O)c1cc(-c2ncnc(Nc3cccc(Cl)c3)n2)ccn1` [Example B129], the logP was determined as 2.51.

Regarding `CN(CCC#N)C(=O)c1cc(-c2ncnc(Nc3ccc(F)cc3)n2)ccn1` [Example B14], the logP amounted to 2.14.

`CN(CC1CC1)C(=O)c1cc(-c2ncnc(Nc3cccc(F)c3)n2)ccn1` [Example B4] displayed a logP of 2.82.

For `CCCCCNC(=O)c1cc(-c2ncnc(Nc3cccc(Cl)c3)n2)ccn1` [B67], the logP came out at 4.35.

Compound `CN(CCC#N)C(=O)c1cc(-c2ncnc(Nc3cccc(F)c3)n2)ccn1` [Example B1] registered a logP of 2.22.

`CCN1CCCC(NC(=O)c2cc(-c3ncnc(Nc4cccc(Cl)c4)n3)ccn2)C1` (centres unmarked) [B122] had a logP of 1.82.

Take `CCCN(C)C(=O)c1cc(-c2ncnc(Nc3cccc(NC(C)=O)c3)n2)ccn1` [Example B305]: the log partition coefficient (logP) is 1.87.

`O=C(c1cc(-c2ncnc(Nc3cccc(Cl)c3)n2)ccn1)N1CCCCC1` [Example B115]: the lipophilicity (logP) worked out at 3.1.

For `CC1CC(C)CN(C(=O)c2cc(-c3ncnc(Nc4cccc(Cl)c4)n3)ccn2)C1` (centres unmarked) [Example B155], the lipophilicity (logP) came to 3.96.

As to `CC(C)N(C)C(=O)c1cc(-c2ncnc(Nc3ccc(F)c(Cl)c3)n2)ccn1` [B208], the logP was found to be 3.02.

In turn, `CCC(C)NC(=O)c1cc(-c2ncnc(Nc3ccc(F)c(Cl)c3)n2)ccn1` (centres unmarked) [Example B197] showed a logP of 4.16.

In the case of `CCCN(C(=O)c1cc(-c2ncnc(Nc3cccc(Cl)c3)n2)ccn1)C(C)CC` (centres unmarked) [Example B171], the logP is 4.13.

The compound `CC(=O)N(c1ccccc1)c1ncnc(-c2ccnc(C(=S)N(C)CC3CC3)c2)n1` [Example B344, N-(4-{2-[(cyclopropylmethyl)(methyl)carbamothioyl]pyridin-4-yl}-1,3,5-triazin-2-yl)-N-phenylacetamide] returned a chromatographic logP of 3.02.

`CN(CCO)C(=O)c1cc(-c2ncnc(Nc3cccc(Cl)c3)n2)ccn1` [Example B136] gave a log partition coefficient (logP) of 2.04.

Regarding `CN(CCC#N)C(=O)c1cc(-c2ncnc(Nc3cccc(C#N)c3)n2)ccn1` [Example B291], the logP was determined as 1.99. This logP and that of the compound before are within 0.2 log units of each other.

Compound `CC(=NOCC(C)C)c1cc(-c2ncnc(Nc3cccc(Cl)c3)n2)ccn1` (mixture of isomers) [B44] returned a lipophilicity (logP) of 5.63.

The compound `CN(CC1CC1)C(=S)c1cc(-c2ncnc(Nc3cccc(F)c3)n2)ccn1` [Example B12] returned a logP of 3.42.

The compound `CN(CC1CC1)C(=O)c1cc(-c2ncnc(Nc3ccc(F)cc3)n2)ccn1` [Example B17] returned a lipophilicity (logP) of 2.73.

Turning to `CNN=C(C)c1cc(-c2ncnc(Nc3cccc(Cl)c3)n2)ccn1` [Example B75], the logP was found to be 2.27.

Consider `CC(C)CN(C)C(=O)c1cc(-c2ncnc(Nc3ccsc3)n2)ccn1` [Example C16], for which the lipophilicity (logP) was determined as 2.63.

The compound `COCCN(C)C(=O)c1cc(-c2ncnc(Nc3cccc(OC(F)(F)F)c3)n2)ccn1` [Example B270] returned a log partition coefficient (logP) of 2.86.

The series is the same for the next values; noted with them: pH 7.8.
As for `CCCN(CCC)C(=O)c1cc(-c2ccnc(Nc3ccnc(Cl)c3)n2)ccn1` [Example A11], the logP is 2.88^[c].

What is called logP is the decadic logarithm of the partition coefficient of the neutral form, usually between octanol and water. A lower logP goes with a more hydrophilic compound. As a reminder, the chromatographic logP is a lipophilicity value derived from retention on a column. A high value points to a more lipophilic compound.

Source of the values: patent US20110218188A1, “SUBSTITUTED (PYRIDYL)-AZINYLAMINE DERIVATIVES AS FUNGICIDES” (priority 2008, published 2011).
